According to patent US7329661B2, “N-phenyl-3-pyrimidine-amine derivatives” (Novartis AG, priority 2000, dated 2008):

What was measured:
CYP3A4/5 = experiment: Risk of metabolic drug interaction from in vitro P450 inhibition, CYP3A4/5; assay type: in vitro ADME, human; details: ratio of plasma concentration to Ki
Description: (§1) In order to evaluate the effect of the compounds of formula I on cytochromes P450 (CYPs), e.g. enzyme inhibition is routinely assessed by performing in vitro inhibition studies using cDNA-expressed enzymes or human liver microsomes (Parkinson, A., Toxicol. Pathol. 24, 45-57 [1996]). Specific drug marker substrate assays according to Tucker et al., Clin. Pharmacol. Ther. 70, 103-114 (2001) can be used to determine the 50% inhibition concentration (IC50) of a compound of formula I for the principal drug-metabolizing P450 enzymes such as e.g. CYP1A2, CYP2A6, CYP2B6, CYP2C8, CYP2C9, CYP2C19, CYP2D6, CYP2E1, CYP3A4/5 and CP4A9/11.
(§2) Inhibition constants Ki or IC50 values derived by these in vitro assays provide a measure for the inhibition capacity of the tested drug compound according to the ratio of drug concentration in plasma to the respective inhibition constant Ki, where a ratio of >1.0 results in a high risk, 1.0-0.1 in a medium risk, and <0.1 in a low risk of metabolic drug interaction.

CYP2D6 = CYP2D6 (Homo sapiens, UniProt P10635); experiment: Risk of metabolic drug interaction from in vitro P450 inhibition, CYP2D6; assay type: in vitro ADME; details: ratio of plasma concentration to Ki
Sequence of CYP2D6 (P10635 whole entry): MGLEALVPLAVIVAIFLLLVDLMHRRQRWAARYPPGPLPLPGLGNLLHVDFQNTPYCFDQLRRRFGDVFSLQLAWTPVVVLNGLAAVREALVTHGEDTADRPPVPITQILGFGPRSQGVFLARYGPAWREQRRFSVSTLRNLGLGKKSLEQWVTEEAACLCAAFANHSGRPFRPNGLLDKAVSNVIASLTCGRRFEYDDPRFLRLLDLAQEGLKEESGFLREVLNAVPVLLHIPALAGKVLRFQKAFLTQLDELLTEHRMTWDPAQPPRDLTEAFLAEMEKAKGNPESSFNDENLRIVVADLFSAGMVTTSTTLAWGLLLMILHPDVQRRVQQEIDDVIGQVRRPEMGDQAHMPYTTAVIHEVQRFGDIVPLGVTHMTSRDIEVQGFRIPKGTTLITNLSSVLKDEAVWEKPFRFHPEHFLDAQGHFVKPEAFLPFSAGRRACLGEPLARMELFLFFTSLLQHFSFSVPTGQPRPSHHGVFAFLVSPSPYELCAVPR
Description: as §1, §2

[1] = Human plasma level and half-life; assay type: in vivo
[2] = test system: certain cytochrome P450 enzymes; experiment: Cytochrome P450 inhibition in vitro; assay type: in vitro ADME, human
Description: as §1, §2

| Compound | melting point | risk of drug-drug interactions compared with STI571 (CYP3A4/5) | risk of drug-drug interactions compared with STI571 (CYP2D6) | half-life compared with STI571 [1] | inhibition of certain cytochrome P450 enzymes compared with STI571 [2] |
| --- | --- | --- | --- | --- | --- |
| CCN1CCN(Cc2ccc(C(=O)Nc3ccc(C)c(Nc4nccc(-c5cccnc5)n4)c3)cc2)CC1 [Example 1, 4-(4-ethyl-piperazin-1-ylmethyl)-N-[4-methyl-3-(4-pyridin-3-yl-pyrimidin-2-ylamino)-phenyl]-benzamide] | 209.5 to 210.5 °C | – | – | – | – |
| Cc1ccc(NC(=O)c2ccc(CN3CCNCC3)cc2)cc1Nc1nccc(-c2cccnc2)n1 [Example 9, N-[4-methyl-3-(4-pyridin-3-yl-pyrimidin-2-ylamino)-phenyl]-4-piperazin-1-ylmethyl-benzamide] | – | much lower risk | much lower risk | somewhat longer than that of STI571 | less inhibition |
| CS(=O)(=O)O.Cc1ccc(NC(=O)c2ccc(CN3CCNCC3)cc2)cc1Nc1nccc(-c2cccnc2)n1 [Example 10, N-[4-methyl-3-(4-pyridin-3-yl-pyrimidin-2-ylamino)-phenyl]-4-piperazin-1-ylmethyl-benzamide methanesulfonate] | 242 to 245 °C | – | – | – | – |
